Test results reported in PMC5527305, “Prevention of Ophthalmia Neonatorum Caused by Neisseria gonorrhoeae Using a Fatty Acid-Based Formulation” (mBio, 2017).

Columns and labels:
[1] = tested on: gonococcal cells (isolate NCCP 11945); assay: Log reduction in artificial tear fluid with or without calcium chloride; format: cell-based, Neisseria gonorrhoeae; details: calcium 1 mM; Fig. 2
Description: The antigonococcal properties of the seven selected fatty acids were tested in artificial tear fluid, which contained calcium chloride. The addition of 1 mM lauric acid, tridecanoic acid, or sodium dodecanoate gave no reduction in bacterial cell number after exposure, in contrast to the results seen when they were tested in culture medium (Fig. 2). […] This was most likely due to the negative effect of calcium on the aqueous solubility of these candidates.
Artificial tear fluid was made as described by Mirejovsky and others ([39]) with or without calcium chloride. […] As with the previous log reductions, 10^7 gonococcal cells (isolate NCCP 11945) were suspended in GC broth. The cell suspension was centrifuged to remove the culture medium, and the bacteria were resuspended in the tear fluid. This was then added to the concentrated organic acid candidates. The cells were then enumerated again after 2 min of exposure to estimate any reduction in cell number due to the exposure to the organic acid.

[2] = tested on: N. gonorrhoeae strain NCCP11945 in coculture with human corneal epithelial cells; assay: Cell culture infection model, log reduction of N. gonorrhoeae on corneal epithelial cells; format: cell-based, Neisseria gonorrhoeae; details: for Killing of N. gonorrhoeae in coculture with corneal cells: 1 mM, added at time of infection or 90 min later, 3 h
Description: Because of its potency, resistance to precipitation in the presence of calcium, and nonirritant nature, monocaprin was chosen from the seven candidates to test in a cell culture model with a 2-fold dilution series from 1 mM to 0.125 mM. Bacteria were also challenged with this compound at two different time points, i.e., at the time of the inoculation and 90 min later. […] There was a slight difference in the level of efficacy when monocaprin was used at sub-MBC levels and added 90 min after bacterial inoculation in comparison to addition immediately after inoculation of the bacteria (Fig. 6). This was possibly due to monocaprin hindering attachment of the bacterial cells to the corneal cells when it was added at the time of infection.
Primary cornea epithelial cells (Life Technologies, Inc.) were grown in keratinocyte serum-free medium (Life Technologies, Inc.) at 37°C with 5% CO2 until 80% confluence was reached. Cells were treated with trypsin, washed, added to 24-well plates, and incubated for a further 24 h. The medium was replaced and approximately 10^7 CFU/ml P^+ and Opa^+ N. gonorrhoeae strain NCCP11945 added to reach a host-to-pathogen ratio (multiplicity of infection) of 1:10. Monocaprin (1 mM, 0.5 mM, 0.25 mM, or 0.125 mM) was added either at 0 min or at 90 min after seeding with N. gonorrhoeae. Controls included noninfected, noninfected treated (with 1 mM monocaprin), infection, and gentamicin controls. After 3 h, the cells were washed, treated with 1% saponin, and incubated for 10 min at 37°C. GC broth was added to each well, and log reductions were calculated as detailed above. Comparisons of the log reductions at different drug administration times at given concentrations were performed using an unpaired t test and GraphPad Prism (version 6.01).

CCCCCCCCCC(=O)OCC(O)CO (centres unmarked) [Monocaprin]
Effect of calcium in artificial tear fluid on antimicrobial effect [1]: unaffected
Efficacy (log reduction) in cell culture model ([2]; 0.125 mM, both time points): completely ineffective
Killing of N. gonorrhoeae in coculture with corneal cells [2]: killed all N. gonorrhoeae bacteria
Killing of N. gonorrhoeae in coculture with corneal cells ([2]; listed as monocaprin): complete killing
Bacterial log reduction, comparison of addition times ([2]; 0.25 and 0.5 mM, 0 min vs 90 min): more effective at 0 min
